ChEMBL document CHEMBL3785036 (J Pharm Sci, 1974)

How the values were obtained:
Type in all cases: ADME, organism-based
[1] = Drug excretion in human rapid inactivators urine assessed as isonicotinuric acid level at 1 g, iv by colorimetry; conditions: in vivo
[2] = Drug excretion in human subject rapid inactivator assessed as sum of isoniazid plus hydrazones, acetylisoniazid, isonicotinic acid and isonicotinuric acid level in urine at 670 mg, iv infused at constant rate 5.2min measured 486 mins after start of drug injection by colorimetry; conditions: in vivo, 8.1 h
[3] = Drug excretion in human subject slow inactivator assessed as total isonicotinoyl compound level in urine at 681 mg, iv infused at constant rate 5.4 min measured 35.5 mins after start of drug injection by colorimetry; conditions: in vivo
[4] = Drug excretion in human subject slow inactivator assessed as sum of isoniazid plus hydrazones, acetylisoniazid, isonicotinic acid and isonicotinuric acid level in urine at 681 mg, iv infused at constant rate 5.4 min measured 370.3 mins after start of drug injection by colorimetry; conditions: in vivo, 6.17167 h
[5] = Drug excretion in human subject slow inactivator assessed as sum of isoniazid plus hydrazones, acetylisoniazid, isonicotinic acid and isonicotinuric acid level in urine at 681 mg, iv infused at constant rate 5.4 min measured 305 mins after start of drug injection by colorimetry; conditions: in vivo
[6] = Drug excretion in human subject slow inactivator assessed as sum of isoniazid plus hydrazones, acetylisoniazid, isonicotinic acid and isonicotinuric acid level in urine at 681 mg, iv infused at constant rate 5.4 min measured 524 mins after start of drug injection by colorimetry; conditions: in vivo
[7] = Drug excretion in human subject rapid inactivator assessed as total isonicotinoyl compound level in urine at 670 mg, iv infused at constant rate 5.2min measured 400 mins after start of drug injection by colorimetry; conditions: in vivo
[8] = Drug excretion in human subject slow inactivator assessed as total isonicotinoyl compound level in urine at 681 mg, iv infused at constant rate 5.4 min measured 710 mins after start of drug injection by colorimetry; conditions: in vivo
[9] = Drug excretion in human subject slow inactivator assessed as total isonicotinoyl compound level in urine at 681 mg, iv infused at constant rate 5.4 min measured 466 mins after start of drug injection by colorimetry; conditions: in vivo
[10] = Drug excretion in human subject slow inactivator assessed as sum of isoniazid plus hydrazones, acetylisoniazid, isonicotinic acid and isonicotinuric acid level in urine at 681 mg, iv infused at constant rate 5.4 min measured 466 mins after start of drug injection by colorimetry; conditions: in vivo
[11] = Drug excretion in human subject slow inactivator assessed as sum of isoniazid plus hydrazones, acetylisoniazid, isonicotinic acid and isonicotinuric acid level in urine at 681 mg, iv infused at constant rate 5.4 min measured 430.2 mins after start of drug injection by colorimetry; conditions: in vivo, 7.17 h
[12] = Drug excretion in human subject slow inactivator assessed as sum of isoniazid plus hydrazones, acetylisoniazid, isonicotinic acid and isonicotinuric acid level in urine at 681 mg, iv infused at constant rate 5.4 min measured 35.5 mins after start of drug injection by colorimetry; conditions: in vivo
[13] = Drug excretion in human rapid inactivators urine assessed as isoniazid plus hydrazones level at 1 g, iv by colorimetry; conditions: in vivo
[14] = Drug excretion in human subject rapid inactivator assessed as sum of isoniazid plus hydrazones, acetylisoniazid, isonicotinic acid and isonicotinuric acid level in urine at 670 mg, iv infused at constant rate 5.2min measured 400 mins after start of drug injection by colorimetry; conditions: in vivo
[15] = Drug excretion in human subject slow inactivator assessed as total isonicotinoyl compound level in urine at 681 mg, iv infused at constant rate 5.4 min measured 396 mins after start of drug injection by colorimetry; conditions: in vivo, 6.6 h
[16] = Drug metabolism in human slow inactivators assessed as excretion of acetylisoniazid in urine at 1 g, iv by colorimetry; conditions: in vivo
[17] = Drug excretion in human subject slow inactivator assessed as total isonicotinoyl compound level in urine at 681 mg, iv infused at constant rate 5.4 min measured 430.2 mins after start of drug injection by colorimetry; conditions: in vivo, 7.17 h
[18] = Drug excretion in human subject rapid inactivator assessed as sum of isoniazid plus hydrazones, acetylisoniazid, isonicotinic acid and isonicotinuric acid level in urine at 670 mg, iv infused at constant rate 5.2min measured 158 mins after start of drug injection by colorimetry; conditions: in vivo
[19] = Drug excretion in human subject rapid inactivator assessed as sum of isoniazid plus hydrazones, acetylisoniazid, isonicotinic acid and isonicotinuric acid level in urine at 670 mg, iv infused at constant rate 5.2min measured 195 mins after start of drug injection by colorimetry; conditions: in vivo, 3.25 h
[20] = Drug excretion in human subject slow inactivator assessed as sum of isoniazid plus hydrazones, acetylisoniazid, isonicotinic acid and isonicotinuric acid level in urine at 681 mg, iv infused at constant rate 5.4 min measured 613 mins after start of drug injection by colorimetry; conditions: in vivo
[21] = Drug excretion in human subject slow inactivator assessed as sum of isoniazid plus hydrazones, acetylisoniazid, isonicotinic acid and isonicotinuric acid level in urine at 681 mg, iv infused at constant rate 5.4 min measured 243.5 mins after start of drug injection by colorimetry; conditions: in vivo
[22] = Drug metabolism in human slow inactivators assessed as excretion of pyruvic acid isonicotinoylhydrazone in urine at 1 g, iv by colorimetry; conditions: in vivo
[23] = Drug excretion in human rapid inactivators urine at 1 g, iv by colorimetry; conditions: in vivo
[24] = Drug excretion in human subject slow inactivator assessed as total isonicotinoyl compound level in urine at 681 mg, iv infused at constant rate 5.4 min measured 116 mins after start of drug injection by colorimetry; conditions: in vivo
[25] = Drug metabolism in human rapid inactivators assessed as excretion of pyruvic acid isonicotinoylhydrazone in urine at 1 g, iv by colorimetry; conditions: in vivo
[26] = Drug excretion in human subject rapid inactivator assessed as total isonicotinoyl compound level in urine at 670 mg, iv infused at constant rate 5.2min measured 62 mins after start of drug injection by colorimetry; conditions: in vivo
[27] = Drug metabolism in human rapid inactivators assessed as excretion of alpha-ketoglutaric acid isonicotinoylhydrazone in urine at 1 g, iv by colorimetry; conditions: in vivo
[28] = Drug excretion in human subject slow inactivator assessed as sum of isoniazid plus hydrazones, acetylisoniazid, isonicotinic acid and isonicotinuric acid level in urine at 681 mg, iv infused at constant rate 5.4 min measured 181 mins after start of drug injection by colorimetry; conditions: in vivo
[29] = Drug excretion in human subject slow inactivator assessed as total isonicotinoyl compound level in urine at 681 mg, iv infused at constant rate 5.4 min measured 59.1 mins after start of drug injection by colorimetry; conditions: in vivo, 0.985 h
[30] = Drug excretion in human subject rapid inactivator assessed as sum of isoniazid plus hydrazones, acetylisoniazid, isonicotinic acid and isonicotinuric acid level in urine at 670 mg, iv infused at constant rate 5.2min measured 126 mins after start of drug injection by colorimetry; conditions: in vivo, 2.1 h
[31] = Drug excretion in human subject rapid inactivator assessed as sum of isoniazid plus hydrazones, acetylisoniazid, isonicotinic acid and isonicotinuric acid level in urine at 670 mg, iv infused at constant rate 5.2min measured 32 mins after start of drug injection by colorimetry; conditions: in vivo
[32] = Drug excretion in human subject rapid inactivator assessed as sum of isoniazid plus hydrazones, acetylisoniazid, isonicotinic acid and isonicotinuric acid level in urine at 670 mg, iv infused at constant rate 5.2min measured 458 mins after start of drug injection by colorimetry; conditions: in vivo

Which results are given for `NNC(=O)c1ccncc1` [ISONIAZID]?
Drug excretion [1]: 101%; Drug excretion [2]: 13 mg; Drug excretion [3]: 50.1 mg; Drug excretion [4]: 26.76 mg; Drug excretion [5]: 27.92 mg; Drug excretion [6]: 11.32 mg; Drug excretion [7]: 18.5 mg; Drug excretion [8]: 9.25 mg; Drug excretion [9]: 20 mg; Drug excretion [10]: 20.23 mg; Drug excretion [11]: 21.24 mg; Drug excretion [12]: 44.45 mg; Drug excretion [13]: 99.6%; Drug excretion [14]: 17.9 mg; Drug excretion [15]: 16.5 mg; Drug metabolism [16]: 34.3 %molar; Drug excretion [17]: 20 mg; Drug excretion [18]: 49.9 mg; Drug excretion [19]: 57.7 mg; Drug excretion [20]: 11.202 mg; Drug excretion [21]: 37.21 mg; Drug metabolism [22]: 13.9 %molar; Drug excretion [23]: 3.6 %molar; Drug excretion [24]: 32 mg; Drug metabolism [25]: 2.9 %molar; Drug excretion [26]: 43.3 mg; Drug metabolism [27]: 1.4 %molar; Drug excretion [28]: 34.76 mg; Drug excretion [29]: 33.7 mg; Drug excretion [30]: 42.3 mg; Drug excretion [31]: 42.1 mg; Drug excretion [32]: 17.3 mg
